Measured values reported in ChEMBL document CHEMBL1201862, “PubChem BioAssay data set” (2004).
The source made the active and inactive calls. Rule as the data show it, for most assays here: actives have a measured EC50 and inactives only a lower limit.

Experiments:
Cytochrome P450 1A2 = target: T1, Cytochrome P450 1A2 (Homo sapiens, UniProt P05177);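 also: PubChem cytochrome P450 panel assay, CYP1A2 panel member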
T1 sequence (P05177 whole entry): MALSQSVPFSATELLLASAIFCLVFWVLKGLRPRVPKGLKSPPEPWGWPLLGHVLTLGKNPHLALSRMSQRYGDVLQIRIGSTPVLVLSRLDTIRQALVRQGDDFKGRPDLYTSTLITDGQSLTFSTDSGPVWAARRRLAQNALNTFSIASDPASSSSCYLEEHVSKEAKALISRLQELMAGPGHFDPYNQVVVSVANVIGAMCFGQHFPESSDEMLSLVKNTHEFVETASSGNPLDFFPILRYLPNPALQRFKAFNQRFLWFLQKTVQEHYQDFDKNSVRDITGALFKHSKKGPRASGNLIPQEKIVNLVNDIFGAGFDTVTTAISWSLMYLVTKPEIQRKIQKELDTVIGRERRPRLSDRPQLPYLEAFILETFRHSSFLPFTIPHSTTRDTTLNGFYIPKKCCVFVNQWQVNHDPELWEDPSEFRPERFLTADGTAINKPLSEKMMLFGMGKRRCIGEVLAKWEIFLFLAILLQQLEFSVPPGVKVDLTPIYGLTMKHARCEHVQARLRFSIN

[1] = Luminescence Cell-Based Dose Response HTS to Identify Inhibitors of 5'UTR Stem-Loop Driven Prion Protein mRNA Translation in H4 Neuroglioblastoma Cells. [Related pubchem assays: 1827 (Project Summary), 1813 (Primary HTS)]; format: functional
[2] = luciferase reporter signal suppression in cells – H4 neuroglioma cells, luminescence, dose response (AID 1990); format: functional, cell-based
[3] = alpha-synuclein stem-loop luciferase translation blockers – H4 neuroglioma cells, luminescence, confirmation (AID 1988); format: functional, cell-based
Streptococcus = test: GAS UMAA2166 growth inhibition – luminescence, BacTiterGlo, counter-screen for streptokinase expression inhibitor project, dose response (AID 1915); format: functional, organism-based;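 also: potency for reduction of bacterial viability or growth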
[4] = system: Streptococcus sp. 'group A'; test: Streptococcus pyogenes SK(-)GAS viability under kanamycin – luminescence, BacTiterGlo, confirmation, counter-screen for streptokinase expression inhibitor project, dose response (AID 1900); format: functional, organism-based
Streptokinase A = target: T2, Streptokinase A (Streptococcus pyogenes serotype M1, UniProt P10520); test: viability-normalized secreted streptokinase activity reduction – plasminogen activation absorbance, OD405, dose response (AID 1914); format: functional, Streptococcus pyogenes M1 GAS;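 also: secreted streptokinase activity via plasminogen activation per viability signal from cell pellet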
T2 sequence (P10520 whole entry): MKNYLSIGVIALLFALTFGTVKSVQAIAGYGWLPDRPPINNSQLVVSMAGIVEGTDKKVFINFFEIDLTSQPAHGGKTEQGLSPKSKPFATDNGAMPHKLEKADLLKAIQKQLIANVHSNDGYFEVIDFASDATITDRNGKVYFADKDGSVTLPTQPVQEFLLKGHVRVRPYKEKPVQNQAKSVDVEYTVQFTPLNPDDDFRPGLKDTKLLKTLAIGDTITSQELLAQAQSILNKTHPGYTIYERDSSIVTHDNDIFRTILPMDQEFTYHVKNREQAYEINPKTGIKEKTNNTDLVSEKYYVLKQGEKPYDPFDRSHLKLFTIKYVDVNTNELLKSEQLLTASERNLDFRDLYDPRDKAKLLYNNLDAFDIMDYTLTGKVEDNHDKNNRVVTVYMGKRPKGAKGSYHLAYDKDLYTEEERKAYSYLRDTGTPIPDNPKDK

INS1 = test: INS-1E survival protection against cytokine death – cell-based, luminescence, retest, dose response (AID 449756); format: functional; conditions: Rattus norvegicus;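 also: cell death triggered by IL-1 beta plus TNF-alpha plus IFN-gamma mixture; protective hits raise ATP signal compared with cytokine alone wells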
Cytochrome P450 2C9 = Cytochrome P450 2C9 (Homo sapiens, UniProt P11712)
Sequence of Cytochrome P450 2C9 (P11712 whole entry): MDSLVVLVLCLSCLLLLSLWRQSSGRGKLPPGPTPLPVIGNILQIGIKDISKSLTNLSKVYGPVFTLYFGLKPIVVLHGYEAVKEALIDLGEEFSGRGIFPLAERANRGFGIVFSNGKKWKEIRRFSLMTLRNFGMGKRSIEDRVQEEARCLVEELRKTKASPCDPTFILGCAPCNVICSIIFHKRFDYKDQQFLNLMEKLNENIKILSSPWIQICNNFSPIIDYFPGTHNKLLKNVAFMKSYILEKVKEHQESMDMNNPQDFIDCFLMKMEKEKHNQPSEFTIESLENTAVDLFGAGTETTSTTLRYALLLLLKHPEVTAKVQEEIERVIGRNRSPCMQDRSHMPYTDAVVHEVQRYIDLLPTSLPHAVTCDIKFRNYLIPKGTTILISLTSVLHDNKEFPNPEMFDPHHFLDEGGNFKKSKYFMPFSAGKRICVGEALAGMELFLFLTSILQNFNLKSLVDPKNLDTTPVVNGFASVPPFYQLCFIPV

Cytochrome P450 3A4 = Cytochrome P450 3A4 (Homo sapiens, UniProt P08684);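 also: CYP3A4 tested as one member of a cytochrome P450 panel screen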
Sequence of Cytochrome P450 3A4 (P08684 whole entry): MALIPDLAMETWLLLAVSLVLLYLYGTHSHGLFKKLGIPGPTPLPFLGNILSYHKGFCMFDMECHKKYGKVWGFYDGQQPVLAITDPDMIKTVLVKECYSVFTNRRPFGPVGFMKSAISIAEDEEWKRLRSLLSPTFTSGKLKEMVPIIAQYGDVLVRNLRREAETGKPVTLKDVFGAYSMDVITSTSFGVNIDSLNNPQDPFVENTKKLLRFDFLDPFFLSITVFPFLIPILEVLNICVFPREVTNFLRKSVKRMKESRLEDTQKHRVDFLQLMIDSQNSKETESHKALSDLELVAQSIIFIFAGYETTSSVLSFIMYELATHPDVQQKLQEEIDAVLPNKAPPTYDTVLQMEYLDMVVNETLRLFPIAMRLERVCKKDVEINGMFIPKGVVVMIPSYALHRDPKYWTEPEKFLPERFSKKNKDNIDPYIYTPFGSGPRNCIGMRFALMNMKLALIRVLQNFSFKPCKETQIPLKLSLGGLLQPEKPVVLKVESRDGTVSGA

[5] = target: T3, Heat shock factor protein 1 (Mus musculus, UniProt P38532); test: decrease of HSF1-responsive luciferase luminescence – cell-based, NIH3T3, dose retest, confirmation (AID 2382); format: functional;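 also: NIH3T3 fibroblasts with HSF1-driven luciferase reporter stressed by proteasome inhibitor MG132; luminescence from HSF1-driven luciferase expression after 8 hours of MG132 stress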
T3 sequence (P38532 whole entry): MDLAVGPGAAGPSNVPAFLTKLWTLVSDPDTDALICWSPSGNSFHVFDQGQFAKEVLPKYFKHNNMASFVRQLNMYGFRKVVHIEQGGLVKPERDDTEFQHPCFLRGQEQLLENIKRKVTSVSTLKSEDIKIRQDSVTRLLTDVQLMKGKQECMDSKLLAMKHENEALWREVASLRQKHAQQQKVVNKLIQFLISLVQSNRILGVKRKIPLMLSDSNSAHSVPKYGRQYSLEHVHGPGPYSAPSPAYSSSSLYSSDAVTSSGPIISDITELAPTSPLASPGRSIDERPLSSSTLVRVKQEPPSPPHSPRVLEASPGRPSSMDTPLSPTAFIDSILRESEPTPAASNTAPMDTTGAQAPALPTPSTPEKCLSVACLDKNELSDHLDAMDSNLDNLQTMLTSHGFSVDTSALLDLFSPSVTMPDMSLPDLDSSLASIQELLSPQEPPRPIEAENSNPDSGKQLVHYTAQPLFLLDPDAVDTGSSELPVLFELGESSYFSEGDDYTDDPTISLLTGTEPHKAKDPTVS

COc1ccc(C(O)c2nccn2Cc2ccccc2)cc1 (stereo not given)
AC50 (Cytochrome P450 1A2): 6.31 µM (inconclusive)

CCOC(=O)c1cc(CC)sc1NC(=O)CSc1nc2ccccc2c(=O)n1Cc1ccco1
EC50 [1]: > 120 µM (not active) | EC50 [2]: > 120 µM (not active) | EC50 [3]: 17.8 µM (active)

Cc1cc(=O)oc2c(OS(C)(=O)=O)c(OS(C)(=O)=O)ccc12
AC50 (Cytochrome P450 1A2): 0.794 µM (inconclusive)

NS(=O)(=O)c1ccc(N/N=C2/CCCCC2C2CCCCC2)c([N+](=O)[O-])c1 (stereo not given)
EC50 (Streptococcus): 7.18 µM (active) | EC50 [4]: 3.34 µM (active) | EC50 (Streptokinase A): 7.92 µM (inconclusive) | AC50 (INS1): 7.29 µM (active)

C=CCn1c(CNc2ccccc2)nnc1SCC(=O)N/N=C/c1ccccc1O
EC50 [1]: > 120 µM (not active) | EC50 [2]: 18.3 µM (active) | EC50 [3]: > 120 µM (not active)

CN1CCN(C(=O)O[C@@H]2c3nccnc3C(=O)N2c2ccc(Cl)cn2)CC1
AC50 (Cytochrome P450 1A2): 39.8 µM (inconclusive)

CC(=O)N1CCN(C)CC1
AC50 (Cytochrome P450 1A2): 31.6 µM (inconclusive)

COc1ccccc1-c1nc(NCCNC(C)=O)c2ccccc2n1
AC50 (Cytochrome P450 1A2): 15.8 µM (inconclusive)

CCOC(=O)c1ncn2c1CN(C)C(=O)c1cc(F)ccc1-2 [FLUMAZENIL]
AC50 (Cytochrome P450 1A2): 39.8 µM (inconclusive)

COc1ccccc1-c1nnc(SCC(=O)N2CC(C)CC(C)C2)o1 (stereo not given)
EC50 [1]: > 120 µM (not active) | EC50 [2]: > 120 µM (not active) | EC50 [3]: > 120 µM (not active)

CC(=O)c1cccc(NC(=O)CSc2ccc(-c3ccccn3)nn2)c1
EC50 [1]: 14.6 µM (active) | EC50 [2]: > 120 µM (not active) | EC50 [3]: > 120 µM (not active)

COC(=O)[C@H](CC(C)C)N(Cc1ccccc1)S(=O)(=O)N(Cc1ccc(OC)cc1)[C@@H](CC(C)C)C(=O)OC
AC50 (INS1): 5.77 µM (active)

COc1ccc(S(=O)(=O)N2CCCN(CCC(=O)Nc3cccc(C(F)(F)F)c3)CC2)cc1
AC50 (Cytochrome P450 2C9): 39.8 µM (inconclusive) | AC50 (Cytochrome P450 3A4): 39.8 µM (inconclusive) | AC50 (Cytochrome P450 1A2): 15.8 µM (inconclusive)

COc1ccc(-n2c(=O)c(-c3cccs3)nc3cnc(N4CCOCC4)nc32)cc1
AC50 (Cytochrome P450 2C9): 20 µM (inconclusive) | AC50 (Cytochrome P450 3A4): 20 µM (inconclusive) | AC50 (Cytochrome P450 1A2): 12.6 µM (inconclusive)

Cc1cccc(N2CC(=O)C(c3nc4ccccc4n3C)=C2N)c1
AC50 (Cytochrome P450 1A2): 14.1 µM (inconclusive)

Cc1ccc(S(=O)(=O)N2CCCCC2c2cccnc2)c(C)c1C (stereo not given)
AC50 (INS1): 57.2 µM (active)

O=C1N=C(N2CCCC2)S/C1=C\C=C\c1ccccc1
EC50 [5]: < 0.16 µM (active)

CC1(C)CC(=O)C(C(c2cccnc2)C2C(=O)CC(C)(C)CC2=O)C(=O)C1
EC50 [5]: > 195 µM (not active)

Cn1nnc2cc(C(=O)NC(C)(C)C)ccc21
EC50 [5]: 83.9 µM (active)

CCOC(=O)N/N=C\c1ccc(C)s1
EC50 [5]: > 195 µM (not active)

CCOC(=O)c1ccc2ncc(C(C)=O)c(O)c2c1
EC50 [5]: > 195 µM (not active)

O=[N+]([O-])c1ccccc1Nc1cccnc1
EC50 [5]: > 195 µM (not active)

O=C(OC(C(=O)NCC1CCCO1)c1ccc(F)cc1)c1cccs1 (stereo not given)
EC50 [5]: > 195 µM (not active)

NC(CC(=O)Nc1ccc(F)cc1)=NO
EC50 [5]: > 195 µM (not active)

c1nc(NCCc2c[nH]cn2)c2nc[nH]c2n1
AC50 (Cytochrome P450 3A4): 3.98 µM (inconclusive) | AC50 (Cytochrome P450 1A2): 5.01 µM (inconclusive)

CN(C)C(=O)c1ccc(NC(=O)c2cccnc2)cc1
AC50 (INS1): 6.14 µM (active)

O=C(CN1CCN(c2ccc(O)cc2)CC1)Nc1cc(S(=O)(=O)N2CCCC2)ccc1Cl
EC50 [5]: > 195 µM (not active)

C/C(=N\NC(=O)c1ccc(C)cc1)c1c(C)nn(-c2ccccc2)c1O
EC50 (Streptococcus): 14.7 µM (active) | EC50 [4]: 3.96 µM (active) | EC50 (Streptokinase A): > 150 µM (not active) | AC50 (INS1): 3.15 µM (active)

CCNc1ncc2nc(CCc3ccccc3)c(=O)n(Cc3cccc(OC)c3)c2n1
AC50 (Cytochrome P450 1A2): 12.6 µM (inconclusive)

CC(=O)NCCNc1ccnc(-c2ccccc2C(F)(F)F)n1
AC50 (Cytochrome P450 3A4): 15.8 µM (inconclusive) | AC50 (Cytochrome P450 1A2): 15.8 µM (inconclusive)
